These results are taken from patent EP3498273A1, “PHARMACEUTICAL COMPOSITION FOR MODULATING THE RESPONSE OF A GABA-A RECEPTOR” (Universität Wien, priority 2017, dated 2019).

In one experiment the test system is male C57BL/6N mice. As to the kind of experiment: Seizure threshold upon pentylenetetrazole (PTZ) tail-vein infusion. The format is in vivo. The following applies: intraperitoneal, 30 min before the test, n = 4, control 39.5 ± 0.8. How it is done: Only male C57BL/6N mice (age 3-6 months) were used for determination of the seizure threshold. Intraperitoneal injection of control or compound-containing solutions was done 30 min before the test. Indicated doses in the results represent milligrams per kilogram body weight. Seizure threshold was determined by pentylenetetrazole (PTZ) tail-vein infusion on freely moving animals at a rate of 100 µl/min (10 mg/ml PTZ in saline, pH = 7.4). […] Animals were immediately killed by cervical displacement after onset of seizures. The seizure threshold dose was calculated from the infused dose in relation to body weight (mg/kg).

The subject of experiment [1] is native GABAA receptors, primary cultures of dissociated hippocampal neurons. As to the kind of experiment: Whole-cell patch clamp on cultured hippocampal neurons (miniature IPSCs and tonic currents). The format is cell-based. The settings on record: 10 µM compound, holding potential -70 mV.
The target of experiment [2] is GABAA receptors composed of α1β2γ2S subunits (Homo sapiens, UniProt P14867+P47870). The experiment can be described thus: Two-microelectrode voltage clamp: IGABA enhancement in Xenopus laevis oocytes.
GABAA receptors composed of α1β2γ2S subunits, sequence (P14867 28-456): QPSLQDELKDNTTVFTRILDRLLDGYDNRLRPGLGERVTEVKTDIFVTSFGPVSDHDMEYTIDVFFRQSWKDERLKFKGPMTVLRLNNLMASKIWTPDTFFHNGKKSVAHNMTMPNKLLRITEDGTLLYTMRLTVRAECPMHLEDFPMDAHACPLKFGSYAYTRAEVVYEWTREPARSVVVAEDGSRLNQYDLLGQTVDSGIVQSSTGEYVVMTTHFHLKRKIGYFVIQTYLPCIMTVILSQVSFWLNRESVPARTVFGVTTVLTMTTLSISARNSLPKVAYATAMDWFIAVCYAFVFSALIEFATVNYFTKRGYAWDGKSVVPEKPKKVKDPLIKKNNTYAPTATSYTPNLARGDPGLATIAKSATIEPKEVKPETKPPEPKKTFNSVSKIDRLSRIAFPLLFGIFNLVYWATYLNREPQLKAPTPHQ
GABAA receptors composed of α1β2γ2S subunits, sequence (P47870 26-474 isoform P47870-1 limits assumed): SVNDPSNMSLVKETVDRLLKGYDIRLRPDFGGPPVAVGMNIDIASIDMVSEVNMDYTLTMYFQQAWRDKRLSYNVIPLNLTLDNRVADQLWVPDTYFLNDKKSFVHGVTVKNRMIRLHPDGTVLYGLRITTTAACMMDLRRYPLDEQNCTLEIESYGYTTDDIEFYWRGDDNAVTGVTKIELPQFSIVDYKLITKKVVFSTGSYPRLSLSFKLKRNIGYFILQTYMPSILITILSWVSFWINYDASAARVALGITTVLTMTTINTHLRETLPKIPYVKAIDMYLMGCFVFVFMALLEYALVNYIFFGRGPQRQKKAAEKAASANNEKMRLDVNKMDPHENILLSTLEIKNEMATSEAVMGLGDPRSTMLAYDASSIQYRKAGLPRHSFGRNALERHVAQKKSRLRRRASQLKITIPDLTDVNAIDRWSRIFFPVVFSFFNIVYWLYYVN
GABAA receptors composed of α1β2γ2S subunits, sequence (P18507 40-467 isoform P18507-1 partner limits assumed): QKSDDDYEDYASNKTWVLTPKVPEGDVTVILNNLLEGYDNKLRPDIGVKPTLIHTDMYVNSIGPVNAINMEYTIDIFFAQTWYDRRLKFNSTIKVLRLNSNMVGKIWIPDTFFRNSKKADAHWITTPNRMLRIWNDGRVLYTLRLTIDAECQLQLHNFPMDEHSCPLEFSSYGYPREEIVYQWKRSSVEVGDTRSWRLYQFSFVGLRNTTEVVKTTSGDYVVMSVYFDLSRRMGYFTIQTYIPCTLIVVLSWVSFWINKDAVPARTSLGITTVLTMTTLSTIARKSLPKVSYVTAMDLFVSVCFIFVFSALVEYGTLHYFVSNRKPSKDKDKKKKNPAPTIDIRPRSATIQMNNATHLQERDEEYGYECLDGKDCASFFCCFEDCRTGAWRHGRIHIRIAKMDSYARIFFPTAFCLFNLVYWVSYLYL
The target in experiment [3] is GABAA receptors composed of α1β1γ2S subunits (Homo sapiens, UniProt P14867+P18505). The description is as above. The following applies: replacing β2/3 by β1; Emax and EC50 not determined.
GABAA receptors composed of α1β1γ2S subunits, sequence (P14867 28-456): as the sequence (P14867 28-456) above
GABAA receptors composed of α1β1γ2S subunits, sequence (P18505 26-474): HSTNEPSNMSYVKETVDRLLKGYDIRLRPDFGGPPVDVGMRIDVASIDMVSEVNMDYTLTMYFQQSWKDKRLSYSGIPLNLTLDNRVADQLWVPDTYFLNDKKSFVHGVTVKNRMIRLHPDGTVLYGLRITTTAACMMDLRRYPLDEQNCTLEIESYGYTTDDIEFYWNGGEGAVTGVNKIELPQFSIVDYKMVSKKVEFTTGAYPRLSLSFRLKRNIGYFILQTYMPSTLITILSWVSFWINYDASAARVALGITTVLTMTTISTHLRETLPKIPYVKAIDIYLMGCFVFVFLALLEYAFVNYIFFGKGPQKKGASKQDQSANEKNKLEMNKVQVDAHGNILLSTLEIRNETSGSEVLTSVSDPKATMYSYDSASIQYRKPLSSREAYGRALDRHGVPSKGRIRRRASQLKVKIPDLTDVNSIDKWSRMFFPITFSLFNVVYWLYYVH
GABAA receptors composed of α1β1γ2S subunits, sequence (P18507 40-467 isoform P18507-1 partner limits assumed): as the sequence (P18507 40-467 isoform P18507-1 partner limits assumed) above

In the experiment on male C57BL/6N mice (0.1 mg/kg body weight), `C/C(=C/C#N)c1ccc(Cl)cc1Cl` [Compound Z-2, (2Z)-3-(2,4-dichlorophenyl)but-2-enenitrile] came in with a seizure threshold of 48.5 ± 2.3 mg/kg PTZ. The seizure threshold in the experiment with male C57BL/6N mice (0.3 mg/kg body weight) is given as 52.3±1.6 mg/kg PTZ. For the same compound, in experiment [1], the “amplitude of mIPSCs” value is recorded as “no effect”, the “frequency of mIPSCs” value is reported as “no effect” and the holding currents entry is “shifted towards more negative values”. The “decay of mIPSCS (normalized)” value in experiment [1] (compared to control, n=5) is 213.8 ± 41.0%. Moreover, in experiment [2], the EC50 came to 9.9 ± 2.5 µM. Also, the Emax in experiment [2] (second β2/3 channel of Fig. 1B, printed as α1β3γ2S, n = 3, no unit at this value) is given as 1804.9 ± 153.0%. For the same compound, the “sensitivity of the resulting GABAA channels” value in experiment [3] is listed as “drastically reduced the sensitivity”.
